# Source: patent US20240158453A1, “Nucleic Acids That Manipulate Immune Pathways” (Children`s Medical Center Corporation, priority 2017, published 2024)
# Starred links: 1 amine or outer side, 2 acyl side, 3 side chain; linkers in the order of their positions; H or OH if unused. Positions of bridges follow the written chain, without caps; N, C: chain ends. Non-standard residues stand in square brackets, D forms with d. Residues, ends and D or L forms follow the SMILES beside them. Chains are numbered I, II in the order given. *: point of attachment. Actinocin(9to1) = Cc1c2oc3c(C)ccc(C(=O)[*:1])c3nc-2c(C(=O)[*:2])c(N)c1=O; NMeV = CN[C@H](C(=O)O)C(C)C; Cbz = O=C(OCc1ccccc1)*; Sar = CNCC(=O)O; CH2F = FC*
# Legend:
# glycolysis = test: 2-DG treatment of TLR-activated cells (Example 6); type: cell-based
# primary BMDMs [1] = test: Seahorse metabolic analysis (ECAR, OCR) of TLR-induced glycolysis; type: cell-based; conditions: for TLR-induced ECAR increase: primary BMDMs with inhibitor (2-DG 25 mM; Actinomycin D 1.5 μg/ml; BX795 5 μM; MRT67307 2.5 μM; Triciribine 20 μM), stimulated with LPS, P3C, R848; for ECAR / mitochondrial oxygen consumption (OCR): primary BMDMs or iBMDMs stimulated with the TLR ligand
# Method: Seahorse Metabolic Analysis. Extracellular acidification rate (ECAR) and oxygen consumption rate (OCR) were measured with a Seahorse XFe96 Extracellular Flux Analyzer instrument primary BMDMs and iBMDMs
# For real-time experiment, primary BMDMs (5×10^4 per well) and iBMDMs (7.5×10^4 per well) were seed in a Seahorse 96 well plate in complete DMEM medium. Cells were allowed to attach to the assay plate for 4-5 hours, then cells were washed one time with serum-free Seahorse Assay Medium and incubated in Seahorse Assay Medium containing 5% FBS, 10 mM Glucose and 2 mM Glutammine in 37° C. incubator without CO2 for 60 min. ECAR and OCR was measured under basal conditions, after treatment with TLR ligands (LPS 1 μg/ml; P3C 1 μg/ml; R848 1 μg/ml) or inhibitors (and their combination). In the assays which required pre-treatment with inhibitors, chemical inhibitors were injected into the wells by the Seahorse Analyzer, and the incubation time were allowed to proceed for 45 min, prior to the injection of TLR ligands. […] Data represent mean±SEM of triplicate wells.
# Myd88-/-/Trif-/- iBMDMs = test: PI staining and LDH release quantification (TLR-induced necroptosis); type: cell-based, murine; conditions: MyD88-RIP3 expressing cells; GSK872 2.5 μM; Nec-1 5 μM; ZVAD 10 μM
# Method: (§1) PI staining and LDH release quantification. For experiments measuring end-point PI staining, PI (5 μM) was included in the culture media to monitor transient pore formation at the last 30 min for each incubation period. A Tecan plate reader was used to measure PI staining (excitation 535 nm, emission 617 nm). Supernatants were assayed for LDH release freshly after stimulation time courses using the Pierce LDH cytotoxicity colorimetric assay kit per the manufacturer's instruction. The same Tecan plate reader was used to measure LDH release (absorbance 490 nm and 680 nm). Cells treated with detergent-containing lysis buffer were used as positive control for PI staining, the resulted supernatants from treated cells were used as positive control for LDH release quantification.
# Generation of synthetic MyD88 molecules. To generate MyD88-NpLxIS and MyD88 CpLxIS alleles, the cDNA sequence encoding the STING pLxIS motif (340-378 a.a.) was fused in tandem then attached to the cDNA sequence encoding the MyD88 protein either at the 5-prime end (for MyD88-NpLxIS) or at the 3-prime end (for MyD88-CpLxIS). The fusion cDNAs were then synthesized as gBLOCKs via IDT. The mutant alleles were also synthesized as gBLOCKs. To generate the MyD88-RIP3 allele, the cDNA sequence encoding the full-length RIP3 was attached the MyD88-encoding cDNA sequence at the 3-prime end. The fusion cDNA was then synthesized as a gBLOCK via IDT. All synthetic DNA sequences were optimized to avoid internal repeats and for optimal expression in murine cells via the IDT online program.
# [2] = tested on: Myd88-/-/Trif-/- iBMDMs expressing MyD88-RIP3; test: Microscopy imaging of cell morphology; type: cell-based, murine
# Method: Microscopy imaging of cell morphology and live cell imaging. To determine cell morphology after TLR stimulation, Myd8^−/−/Trif^−/− iBMDMs expressing MyD88 and MyD88-RIP3 were seeded in 12-well plates (0.5×10^6 per well) and were subjected to indicated treatments (Staurosporine 1 μM; TLR ligands 1 μg/ml) to induce cell death. For static image capture, a Nikon Eclipse TS100 microscope was used with 40× magnification. Images were processed with the “NIS-Elements F” software. Representative images were chosen from at least three randomly chosen fields from one representative experiment of three independent experiments.
# primary BMDMs [3] = test: LDH release from primary BMDMs stimulated with LPS in the presence of inhibitors; type: cell-based; conditions: 18 hr
# Method: as §1
# TBK1 = test: Western analysis of TBK1 activation in primary BMDMs stimulated with TLR ligands; type: cell-based
# Method: (§2) Western blotting and immunoprecipitation. For western analysis of signaling pathway activation, primary BMDMs (1×10^6) or iBMDMs (0.5×10^6) were seeded in 12 well plates and stimulated with ligands for indicated periods, and subsequently lysed in 300 μl 1×SDS containing 8 M UREA. Lysates were incubated at 65° C. for 15 min. Before SDS-PAGE separation, lysates were passed through a BD 1 ml sub-Q syringe attached to a 26G needle to reduce viscosity. 15 μl of individual samples (15-20 μg protein from whole cell extract) were separated by SDS-PAGE followed by western analysis.
# AKT = test: Western analysis of AKT phosphorylation in primary BMDMs stimulated with TLR ligands; type: cell-based; conditions: primary WT BMDMs
# Method: as §2
# [4] = tested on: Il-1b and Il-6 transcripts; test: qPCR of TLR-induced Il-1b and Il-6 transcripts in primary BMDMs; type: cell-based; conditions: primary BMDMs pretreated with ActD 1.5 μg/ml for 40 min, TLR ligands 4 h
# Method: (§3) Gene expression analysis and ELISA. RNA was isolated from cell cultures using Qiashedder (Qiagen) and GeneJET RNA Purification Kit (Life Technologies). Purified RNA was analyzed for gene expression on a CFX384 real time cycler (Bio-rad) using TaqMan RNA-to-CT 1-Step Kit (Applied Biosystems) with probes specific for Rsad2, II-1b, Il-6 and Gapdh.
# PARP = PARP cleavage by western analysis; type: cell-based, murine; conditions: Myd88-/-/Trif-/- iBMDMs expressing MyD88-RIP3, TLR ligands or staurosporine 1 μM, 6 hr
# Method: as §2
# myddosome = target: T1, myddosome (UniProt P0AES6+P22366); test: Coumermycin-induced myddosome formation in Myd88-/-/Trif-/- iBMDMs expressing 3×FLAG-MyD88-GyrB; type: cell-based, murine; conditions: CM 0.5 μM
# T1 construct: expressed in transfected cells; host or cells: Myd88-/-/Trif-/- iBMDMs, retroviral transduction (pMSCV-IRES-GFP)
# Method: as §3
# For myddosome isolation, iBMDMs (5×10^6) were stimulated with ligands for indicated times, and subsequently lysed in 400 μL of lysis buffer containing 50 mM Tris-HCl (pH 7.5), 150 mM NaCl, 5% Glycerol, 1 mM Sodium dioxycholate and 1% NP40. Protease inhibitors and phosphatase inhibitors were added prior to cell lysis. Lysates were spun at top speed for 15 minutes at a table-top centrifuge in the cold room (at 4° C.). The cleared supernatants were collected and 80 μL of the supernatants was saved as sample inputs. 0.5 μg of the anti-MyD88 antibody with 15 15 μl (bed volume) of protein G sepharose (for endogenous MyD88) or 15 μl (bed volume) of anti-FLAG (M2) agarose (for 3×FLAG-MyD88 alleles) was added to the remaining supernatants and the incubation were allowed to proceed for 4-5 hr at 4° C. on a nutator. The beads containing the protein complexes were then washed for 3 times with lysis buffer, and 60 μL of SDS loading buffer was added. The protein complexes were further eluted by heating at 65° C. for 15 minutes. A portion of eluted protein complexes (20 μl) were separated by SDS-PAGE and analyzed by western blot.
# Cells were fixed at room temperature for 30 min, permeabilized with 0.2% Triton X-100 for 5 min at room temperature and […] with 2% goat serum in PBS supplemented with 50 mM ammonium chloride. Primary and secondary antibody staining were performed following product instructions. Working concentrations of primary antibodies were used as the following: pTBK1 (1:100), pp 38 (1:100), FLAG (M2) (1:100). Samples were imaged by the Zeiss 880 laser scanning confocal microscope.
# TLR4 = target: T2, TLR4 (Mus musculus, UniProt Q9JHF9+Q9QUK6); test: Isolation of protein complexes associated with activated TLR4; type: cell-based; conditions: iBMDMs, LPS 100 ng/ml, within minutes
# T2 construct: endogenous in cells; host or cells: WT iBMDMs
# T2 sequence (Q8R4K2 whole entry): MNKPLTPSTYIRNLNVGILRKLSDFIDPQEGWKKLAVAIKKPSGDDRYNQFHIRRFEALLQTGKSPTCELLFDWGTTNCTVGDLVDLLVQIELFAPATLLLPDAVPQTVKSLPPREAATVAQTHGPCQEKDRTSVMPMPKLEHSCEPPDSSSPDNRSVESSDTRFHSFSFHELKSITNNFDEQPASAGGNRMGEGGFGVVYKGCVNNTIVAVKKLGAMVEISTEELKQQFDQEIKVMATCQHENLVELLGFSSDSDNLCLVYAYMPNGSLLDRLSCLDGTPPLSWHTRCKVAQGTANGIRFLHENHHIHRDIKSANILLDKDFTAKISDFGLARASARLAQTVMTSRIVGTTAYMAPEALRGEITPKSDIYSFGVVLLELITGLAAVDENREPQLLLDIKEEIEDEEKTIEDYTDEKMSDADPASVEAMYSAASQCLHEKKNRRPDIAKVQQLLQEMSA
# T2 sequence (Q9QUK6 26-835): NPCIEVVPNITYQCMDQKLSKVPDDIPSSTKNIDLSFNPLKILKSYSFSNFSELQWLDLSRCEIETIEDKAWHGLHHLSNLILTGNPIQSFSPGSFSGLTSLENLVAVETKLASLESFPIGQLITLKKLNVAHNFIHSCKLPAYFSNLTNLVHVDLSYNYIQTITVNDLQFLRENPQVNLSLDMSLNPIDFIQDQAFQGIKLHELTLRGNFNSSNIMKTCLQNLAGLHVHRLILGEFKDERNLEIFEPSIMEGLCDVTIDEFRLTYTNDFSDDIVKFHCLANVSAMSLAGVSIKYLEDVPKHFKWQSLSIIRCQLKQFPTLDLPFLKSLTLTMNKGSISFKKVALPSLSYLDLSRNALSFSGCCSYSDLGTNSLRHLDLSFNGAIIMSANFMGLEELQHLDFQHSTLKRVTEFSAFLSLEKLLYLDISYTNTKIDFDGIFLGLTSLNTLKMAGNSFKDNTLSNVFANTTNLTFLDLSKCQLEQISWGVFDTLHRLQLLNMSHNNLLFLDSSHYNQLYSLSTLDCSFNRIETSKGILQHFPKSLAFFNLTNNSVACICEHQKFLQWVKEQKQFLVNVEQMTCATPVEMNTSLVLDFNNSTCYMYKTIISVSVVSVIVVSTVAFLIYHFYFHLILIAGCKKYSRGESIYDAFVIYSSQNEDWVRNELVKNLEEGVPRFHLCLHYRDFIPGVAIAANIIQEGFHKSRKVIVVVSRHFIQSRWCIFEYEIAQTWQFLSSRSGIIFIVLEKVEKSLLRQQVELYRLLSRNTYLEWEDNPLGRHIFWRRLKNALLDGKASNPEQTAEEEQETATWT
# T2 sequence (Q9JHF9 19-160): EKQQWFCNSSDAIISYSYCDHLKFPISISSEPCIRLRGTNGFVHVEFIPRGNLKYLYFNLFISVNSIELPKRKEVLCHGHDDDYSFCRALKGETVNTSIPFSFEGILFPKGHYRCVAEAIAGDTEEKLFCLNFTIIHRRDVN
# T2 sequence (P22366 whole entry, further chain): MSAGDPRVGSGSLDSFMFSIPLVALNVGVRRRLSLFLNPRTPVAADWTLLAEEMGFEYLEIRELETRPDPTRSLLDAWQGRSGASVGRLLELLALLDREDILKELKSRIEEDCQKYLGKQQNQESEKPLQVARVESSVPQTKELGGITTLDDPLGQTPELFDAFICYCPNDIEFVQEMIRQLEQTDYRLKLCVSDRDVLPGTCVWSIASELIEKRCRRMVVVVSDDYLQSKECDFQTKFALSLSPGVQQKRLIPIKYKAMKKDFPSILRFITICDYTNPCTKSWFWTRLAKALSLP
# T2 sequence (Q8CFA1 whole entry, further chain): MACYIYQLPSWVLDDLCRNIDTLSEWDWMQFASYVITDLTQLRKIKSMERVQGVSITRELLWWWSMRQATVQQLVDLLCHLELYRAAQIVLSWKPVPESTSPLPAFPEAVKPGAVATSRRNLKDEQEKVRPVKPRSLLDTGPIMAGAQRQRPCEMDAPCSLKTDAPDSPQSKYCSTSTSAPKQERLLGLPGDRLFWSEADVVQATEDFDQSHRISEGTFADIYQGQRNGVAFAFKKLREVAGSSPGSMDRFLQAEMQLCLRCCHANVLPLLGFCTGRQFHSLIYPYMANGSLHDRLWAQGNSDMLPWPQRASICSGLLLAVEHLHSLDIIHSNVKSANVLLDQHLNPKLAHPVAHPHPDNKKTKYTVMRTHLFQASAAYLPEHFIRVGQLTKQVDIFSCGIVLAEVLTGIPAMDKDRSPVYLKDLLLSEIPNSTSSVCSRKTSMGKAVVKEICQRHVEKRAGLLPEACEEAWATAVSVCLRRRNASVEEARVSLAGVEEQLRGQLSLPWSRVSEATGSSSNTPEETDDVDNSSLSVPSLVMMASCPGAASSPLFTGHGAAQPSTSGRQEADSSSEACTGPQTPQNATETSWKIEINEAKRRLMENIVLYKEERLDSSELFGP
# Method: For isolation of protein complexes associated with activated TLRs, cells were lysed using a modified lysis buffer containing 50 mM HEPES, 150 mM NaCl, 0.5% DDM (n-Dodecyl-β-D-Maltoside), 0.05% CHS (cholesteryl hemisuccinate). This buffer is suitable for the isolation of membrane protein complexes. 0.5 μg of biotinylated anti-TLR4 (Sal5-21) antibody was used (per sample) to capture the TLR4 signaling complex with streptavidin agarose. 15 μl (bed volume) of anti-HA agarose was used (per sample) to capture the TLR9-HA signaling complex. Immunoprecipitates were washed 3 times with the modified lysis buffer and analyzed by western blot.
# IRF3 = test: Western analysis of IRF3 activation in primary BMDMs stimulated with TLR ligands; type: cell-based
# Method: as §2
compound,measurement,setting,value
OCC1OC(O)CC(O)C1O (stereo not shown) [2-DG],cytokine gene transcription versus translation,glycolysis,uncoupled cytokine gene transcription from translation
same,host responses at the receptor proximal,glycolysis,did not affect
same,TLR-induced ECAR increase,primary BMDMs [1],blocked
O=C(NCCCNc1nc(Nc2cccc(NC(=O)N3CCCC3)c2)ncc1I)c1cccs1 [BX795],TLR-induced ECAR increase,primary BMDMs [1],dampened
CC(C)S(=O)(=O)c1ccc2nccc(Nc3ccc4scnc4c3)c2c1 [GSK872],TLR-induced LDH release (cell death) with inhibitor,Myd88-/-/Trif-/- iBMDMs,blocked
same,TLR-induced PI staining (membrane rupture) with inhibitor,Myd88-/-/Trif-/- iBMDMs,blocked
same,morphological changes of TLR-stimulated MyD88-RIP3 cells with inhibitor pre-treatment,[2]; GSK872 2.5 μM,could be suppressed
O=C(NCCCNc1nc(Nc2cccc(CN3CCOCC3)c2)ncc1C1CC1)C1CCC1 [MRT67307],TLR-induced ECAR increase,primary BMDMs [1],dampened
CN1C(=O)C(Cc2c[nH]c3ccccc23)NC1=S (stereo not shown) [Nec-1],prevention of ZVAD plus LPS induced necroptosis,primary BMDMs [3]; primary BMDMs,could be prevented
same,TLR-induced LDH release (cell death) with inhibitor,Myd88-/-/Trif-/- iBMDMs,unaffected
same,TLR-induced PI staining (membrane rupture) with inhibitor,Myd88-/-/Trif-/- iBMDMs,unaffected
CCOCc1nc2c(N)nc3ccccc3c2n1CC(C)(C)O [R848],TBK1 activation (pTBK1),TBK1,activated
same,AKT phosphorylation,AKT,induced AKT phosphorylation
same,ECAR,primary BMDMs [1],increased ECAR rapidly
same,mitochondrial oxygen consumption (OCR),primary BMDMs [1],without causing discernible changes
COC(=O)C[C@H](NC(=O)[C@H](C)NC(=O)[C@@H](NC(=O)OCc1ccccc1)C(C)C)C(=O)CF [ZVAD] (Cbz-Val-Ala-Asp(OMe)-CH2F),necroptosis (LDH release) of primary BMDMs,primary BMDMs [3]; ZVAD 10 μM pre-treatment followed by LPS,induced necroptosis
same,TLR-induced LDH release (cell death) with inhibitor,Myd88-/-/Trif-/- iBMDMs,failed to prevent
same,TLR-induced PI staining (membrane rupture) with inhibitor,Myd88-/-/Trif-/- iBMDMs,failed to prevent
"Cc1c2oc3c(C)ccc(C(=O)N[C@@H]4C(=O)N[C@H](C(C)C)C(=O)N5CCC[C@H]5C(=O)N(C)CC(=O)N(C)[C@@H](C(C)C)C(=O)O[C@@H]4C)c3nc-2c(C(=O)N[C@@H]2C(=O)N[C@H](C(C)C)C(=O)N3CCC[C@H]3C(=O)N(C)CC(=O)N(C)[C@@H](C(C)C)C(=O)O[C@@H]2C)c(N)c1=O [actinomycin D] (I: T[dV]P[Sar][NMeV] / II: T[dV]P[Sar][NMeV]; ester I:1-I:C, II:1-II:C; linker I:N-II:N via Actinocin(9to1))",TLR-induced ECAR increase,primary BMDMs [1],still able to increase ECAR
same,TLR-induced transcription of Il-1b and Il-6,[4],prevented
CN[C@@H]1C[C@H]2O[C@@](C)([C@@H]1OC)n1c3ccccc3c3c4c(c5c6ccccc6n2c5c31)C(=O)NC4 [staurosporine],PARP cleavage,PARP,induced PARP cleavage
same,cell morphology,"[2]; 1 hr post-stimulation, TLR ligands or staurosporine 1 μM","membrane blebbing, generation of apoptotic bodies/vesicles"
coumermycin [CM],myddosome formation,myddosome,induced myddosome formation
same,p38 activation (nuclear staining pattern),myddosome; 30 min,clearly activated
same,pTBK1 staining of MyD88 specks,myddosome; 30 min,stained positive for pTBK1
same,phosphorylated p38 (pp38) within MyD88 specks,myddosome; 30 min,not detected within MyD88 specks
same,cells with distinct MyD88 specks,"myddosome; 30 min, immunofluorescence",more than 60%
same,Il-1b expression,"myddosome; 4 hr, qPCR",comparable to that induced by LPS and P3C treatment
lipopolysaccharide [LPS],TBK1 activation (pTBK1),TBK1,activated
same,"recruitment of endogenous MyD88, IRAK2 and IRAK4 to TLR4",TLR4,inducibly recruited
same,AKT phosphorylation,AKT,induced
same,IRF3 activation (pIRF3),IRF3,activated
same,ECAR,primary BMDMs [1],increased ECAR rapidly
same,mitochondrial oxygen consumption (OCR),primary BMDMs [1],without causing discernible changes
